From patent US20240366569A1, “COMBINATIONS FOR TREATING CANCER” (Purdue Pharmaceutical Products L.P., priority 2023, published 2024)
Entries after “also recorded” stand apart in the source; their conditions may differ.

Columns and labels:
metastatic melanoma = conditions: cited from earlier work
[1] = system: renal cell carcinoma (RCC); conditions: cited from earlier work
[2] = patients with advanced melanoma; cited from earlier work
[3] = Phase 1B clinical trial of Tinostamustine in combination with Nivolumab: safety, tolerability, recommended dose; format: in vivo, human
Description: The clinical study relates to an open-label, single-centre, phase-1B clinical trial to determine the safety, tolerability, recommended dose and anti-cancer efficacy of Tinostamustine in combination with the anti-PD-1 monoclonal antibody (mAb), Nivolumab in patients with advanced melanoma receiving standard-of-care treatment. Tinostamustine is a compound having the following structural formula: […]
A total of 17 patients with advanced melanoma were recruited to a Phase IB study to characterise the safety, tolerability, recommended dose and preliminary efficacy in the treatment of cancer of Tinostamustine in combination with the immune checkpoint inhibitor, Nivolumab.
Tinostamustine was administered intravenously. Four patients were administered tinostamustine at a dose of 15 mg/m^2 (referred to as dose level 1—DL1) for each cycle. Thirteen patients were administered with Tinostamustine at a dose of 30 mg/m^2 (referred to as dose level 2—DL2) for each cycle.
The primary endpoint of the study was dose limiting toxicity (DLT) observed during the first 6 weeks of trial treatment. […]

[4] = system: MC38 subcutaneous murine colorectal syngeneic model; assay: MC38 subcutaneous murine colorectal syngeneic model: tumour burden and survival; format: in vivo, female C57BL/6 mice
Experimental: Specifically, the effects of the combined therapy Tinostamustine and an […] antibody in the treatment of the MC38 subcutaneous murine colorectal syngeneic model in female C57BL/6 mice following 3 dose cycles was assessed. MC38 is a commonly used murine model for colorectal carcinoma.
Six groups of mice were randomly allocated a group, hereafter referred to as Groups 1 to 6, as in Table 3.
Tinostamustine was administered intravenously, specifically by slow intravenous injection at a rate of ˜60 s per mouse. Two groups of mice were administered tinostamustine at a dose of 5 mg/kg once weekly, either as a monotherapy (Group 3) or as a combination therapy (Group 5). […]
The MC38 cells were maintained in vitro with DMEM medium supplemented with 10% fetal bovine serum at 37° C. in an atmosphere of 5% CO2 in air. The cells in exponential growth phase were harvested and quantitated by cell counter before tumour inoculation. […]
Tumour volumes were measured twice a week after randomization in two dimensions using a caliper, and the volume was expressed in mm3 using the formula: “V=(L×W×W)/2, where V was tumour volume, L was tumour length (the longest tumor dimension) and W was tumour width (the longest tumour dimension perpendicular to L). […] The body weights and tumour volumes were measured by using StudyDirector™ software (version 3.1.399.19). […]

[5] = MC38 model: tolerability and body weight; format: in vivo, female C57BL/6 mice
Experimental: After tumour cell inoculation, the animals were checked daily for morbidity and mortality. During routine monitoring, the animals were checked for treatment effects on tumour growth, behaviour such as mobility, food and water consumption, body weight gain/loss (Body weights) were measured twice a week after randomization), eye/hair matting and any other abnormalities. Mortality and observed clinical signs were recorded for individual animals in detail.
Tumour volumes were measured twice a week after randomization in two dimensions using a caliper, and the volume was expressed in mm3 using the formula: “V=(L×W×W)/2, where V was tumour volume, L was tumour length (the longest tumor dimension) and W was tumour width (the longest tumour dimension perpendicular to L). Dosing as well as tumour and body weight measurements were conducted in a Laminar Flow Cabinet. The body weights and tumour volumes were measured by using StudyDirector™ software (version 3.1.399.19).

[6] = Myelosuppression on administration of Tinostamustine at the indicated dosage ranges; format: in vivo; conditions: below 40 mg/m^2 body surface area
Experimental: More particularly, the dosage ranges of Tinostamustine described herein may preferably avoid Tinostamustine causing cytotoxicity to immune cells. For comparison, the doses at which Tinostamustine are administered in accordance with the present invention are below those normally used to achieve an anti-cancer neoplastic effect (e.g. via inducing cytotoxicity in tumour cells) with Tinostamustine as a monotherapy (typically […]).

advanced melanoma [7] = conditions: cited from earlier work
advanced melanoma [8] = conditions: in vivo; cited from earlier work

Compound | response rate (metastatic melanoma) | response rate [1] | high-grade adverse events [2] | safety concerns ([3]; Tinostamustine doses between 10 mg/m^2 and 30 mg/m^2 body surface area) | recommended dose ([3]; in combination with Nivolumab 3 mg/kg) [mg/m^2] | tumour burden / anti-tumour effect ([4]; dose group not specified) | survival of mice ([4]; vs vehicle control) | tolerability ([5]; 3 weeks of treatment) | body weight ([5]; mean body weight during treatment) | myelosuppression [6] | objective response rate (advanced melanoma [7]; first-line) [%] | progression-free survival (advanced melanoma [7]; first-line) [months] | overall survival improved by (advanced melanoma [7]; versus dacarbazine, first-line) [%] | overall survival HR (advanced melanoma [7]; versus dacarbazine, p<0.001) | progression-free survival HR (advanced melanoma [7]; versus dacarbazine, p<0.001) | progression-free survival improved by (advanced melanoma [7]; versus dacarbazine) [%] | median overall survival (advanced melanoma [8])
Ipilimumab: anti-CTLA-4 monoclonal antibody | 15-20% | minimal activity | 28 % of patients | – | – | – | – | – | – | – | – | – | – | – | – | – | –
Cn1c(CCCCCCC(=O)NO)nc2cc(N(CCCl)CCCl)ccc21 [Tinostamustine] | – | – | – | without any significant safety concerns | 30 | has anti-tumour effect | significantly prolonged the survival; also recorded: increases survival | well-tolerated | no loss of body weight; also recorded: weight gain | no myelosuppression | – | – | – | – | – | – | –
Nivolumab | 43% | ~25% | 23 % of patients | – | – | – | – | – | – | – | 40.0 | 5.1 | 58 | 0.42 | 0.43 | 57 | not reached
